Patent US7253176B1, “Immunosuppressive effects of 8-substituted xanthine derivatives” (K.U. Leuven Research & Development, priority 2000, dated 2007)

Columns and labels:
Format in all cases: cell-based, human
[1] = system: Peripheral blood mononuclear cells (PBMC); test: Mixed lymphocyte reaction (MLR), [3H]-thymidine incorporation
Description: (§1) Various models may be used for testing an immunosuppressive effect. In vivo, for example, different transplantation models are available. They are strongly influenced by different immunogenicities, depending on the donor and recipient species used and depending on the nature of the transplanted organ. The survival time of transplanted organs can thus be used to measure the suppression of the immune response. In vitro, there exist also various models. The most used are lymphocyte activation tests. Usually activation is measured via lymphocyte proliferation. Inhibition of proliferation thus always means immunosuppression under the experimental conditions applied. There exist different stimuli for lymphocyte activation: • coculture of lymphocytes of […] (MLR=mixed lymphocyte reaction): lymphocytes expressing different minor and major antigens of the HLA-DR type (=allogens) activate each other non-specifically. • CD3 assay: here there is an activation of the T-lymphocytes via an exogenously added antibody (OKT3). This antibody reacts against the CD3 molecule located on the lymphocyte membrane. This molecule has a […]. […] This molecule is also located on the lymphocyte membrane, and delivers strong costimulatory signals. […] Reagents
Mixed Lymphocyte Reaction
Peripheral blood mononuclear cells (PBMC) were isolated from heparinized peripheral blood by density gradient centrifugation over Lymphoprep (Nycomed, Maorstua, Norway). Allogeneic PBMC or EBV-transformed human B cells [RPMI1788 (ATCC name CCL156)] which strongly express B7-1 and B7-2 were used as stimulator calls after irradiation with 30 Gy. MLR was performed in triplicate wells. After 5 days incubation at 37° C., 1 μCi [^3H]-thymidine was added to each cup. After a further 16 hours incubation, cells were harvested and counted in a β-counter.
The percent suppression of proliferation by drugs was counted using the formula: […]

Highly purified T cells [2] = test: T cell proliferation induced by anti-CD3 mAb+PMA (BrdU); conditions: for IC50: read-out: IC50 aCD3
Description: T cells were purified by removing non-T cells. Briefly, monocytes were removed by cold agglutination. The resulting lymphoid cells were further purified by a cell enrichment immunocolumn [Cellect Human T (Biotex, Edmonton, Alberta, Canada)] by a process of negative selection.
(§2) Measurements of T Cell Proliferations Induced by Anti-CD3 mAB+PMA or Anti-CD28 mAb+PMA
(§3) Highly purified T cells (10^6/ml) were stimulated by immobilized anti-CD3 or anti-CD28 mAb in the presence of PMA. Anti-CD3 mAb (CLB-CD3; CLB, Amsterdam, The Netherlands) were fixed on the 96-microwell plates by incubating the wells with 50 μl of mAb solution […] 50 μl (1/650 dilution in culture medium) was added directly to the wells. Further, 20 μl PMA (Sigma, St. Louis, Mo., USA) solution (final concentration: 0.5 ng/ml) was added. Subsequently, 20 μl of immunosuppressants were added by serial dilution in triplicate wells. Finally 100 μl of the T cell suspension (10^6/ml) was added. After 48-hour incubation at 37° C. in 5% CO2 20 μl BrdU (100 μM solution) (Cell Proliferation Elisa, Boehringer-Mannheim Belgium) was added to each well. After a further overnight incubation the T cell proliferation was measured using a calorimetric immunoassay for qualification of cell proliferation based on measurements of the incorporation of BrdU during DNA synthesis. The optical density (OD) was measured by a Behring EL311 place reader at 450 nm (reference wavelength: […]). The percent suppression of proliferation by drugs was counted using the formula: […]

Highly purified T cells [3] = test: T cell proliferation induced by anti-CD28 mAb+PMA (BrdU); conditions: read-out: IC50 aCD28
Description: as §1
T cells were purified by removing non-T cells. Briefly, monocytes were removed by cold agglutination. The resulting lymphoid cells were further purified by a cell enrichment immunocolumn [Cellect Human T (Biotex, Edmonton, Alberta, Canada)] by a process of negative selection. More than 95% of the B cells were removed with this procedure. After depletion, the resulting T cell preparation was highly purified explaining these cells could not be activated by PHA or rIL-2 alone at concentrations capable of stimulating RBMC prior to deletion.
as §2, §3

[4] = lowest concentration giving 50% suppression of the MLR
[5] = Homo sapiens, PBMC, immunosuppressants for comparison
[6] = Homo sapiens, T-cell, immunosuppressants for comparison, anti-CD3 mAb+PMA
[7] = Homo sapiens, PBMC, lowest concentration giving 50% suppression of the MLR
[8] = Homo sapiens, T-cell, immunosuppressants for comparison, anti-CD28 mAb+PMA

Molecule | IC50 [1, 4] | IC50 (Highly purified T cells [2]; anti-CD3 mAb+PMA pathway) | IC50 (Highly purified T cells [3]; anti-CD28 mAb+PMA pathway) | also measured
C#CCn1cnc2c1c(=O)n(C)c(=O)n2CC#C [Compound 3, 1-methyl-3,7-dipropynylxanthine] | 150 µM | 150 µM | 100 µM | 
1,3-dimethyl-7-allyl-8-[(4-trifluoromethyl)-fenyl]xanthine [Compound 82] | 25 µM | 80 µM | 80 µM | 
CCCn1c(=O)c2[nH]c(-c3ccc(OCC(=O)OCC)cc3)nc2n(CCC)c1=S [Compound 29] | > 200 µM | 150 µM | 130 µM | 
Cn1cnc2c1c(=O)[nH]c(=O)n2CC(C)(C)C [Compound 70] | > 200 µM | 180 µM | 140 µM | 
CCCn1c(=O)c2[nH]c(-c3ccsc3)nc2n(CCC)c1=O [Compound 15] |  | > 200 µM | 170 µM | 
1,3,7-tripropyl-8-(4-chlorofenyl)xanthine [Compound 118] | 15 µM | 15 µM | 20 µM | 
1,3,7-tripropyl-8-fenylxanthine [Compound 113] | 20 µM | 110 µM | 90 µM | 
CC(O)CCCCn1c(=O)c2c(ncn2C)n(C)c1=O (stereo not shown) [Compound 25] | > 200 µM | 140 µM | 160 µM | 
Cn1c(=O)c2[nH]c(C3CCCC3)nc2n(C)c1=S [Compound 64] | > 200 µM | > 200 µM | > 200 µM | 
CCCn1c(=O)c2[nH]c(C3CCCC3)nc2n(CCC)c1=S [Compound 65] | > 200 µM | 135 µM | 75 µM | 
1,3,7-trimethyl-8-(4-trifluoromethylfenyl)-xanthine [Compound 10] | 50 µM | 20 µM | 30 µM | 
CCCn1c(=O)c2[nH]c(-c3ccco3)nc2n(CCC)c1=O [Compound 59] | 15 µM | 155 µM | 135 µM | 
1,7-diallyl-3-propyl-8-fenylxanthine [Compound 114] | 15 µM | 85 µM | 70 µM | 
CCCn1cnc2c1c(=O)n(CCCCC(C)O)c(=O)n2C (stereo not shown) [Compound 26] | 100 µM | 100 µM | 100 µM | 
1,3-dimethyl-7-propyl-8-fenylxanthine [Compound 112] | 20 µM | 45 µM | 40 µM | 
C=CC[C@@H]1/C=C(\C)C[C@H](C)C[C@H](OC)[C@H]2O[C@@](O)(C(=O)C(=O)N3CCCC[C@H]3C(=O)O[C@H](/C(C)=C/[C@@H]3CC[C@@H](O)[C@H](OC)C3)[C@H](C)[C@@H](O)CC1=O)[C@H](C)C[C@@H]2OC [FK506, reference compound] |  |  |  | IC50 [1, 5]: 0.001 µM; IC50 (Highly purified T cells [2]; [6]): 0.001 µM; activity in the anti-CD3+PMA test (Highly purified T cells [2]; in words): active

Molecule | IC50 [1, 4] | IC50 (Highly purified T cells [2]; anti-CD3 mAb+PMA pathway) | IC50 (Highly purified T cells [3]; anti-CD28 mAb+PMA pathway) | also measured
Cn1c(-c2ccc(C(F)(F)F)cc2)nc2c1c(=O)[nH]c(=O)n2C [Compound 83] | > 200 µM | > 200 µM | 150 µM | 
Cn1c(=O)c2[nH]c(-c3ccc(S(N)(=O)=O)cc3)nc2n(C)c1=O [Compound 125] | 160 µM | 150 µM | 90 µM | 
CCCn1c(=O)c2[nH]c(-c3ccco3)nc2n(CCC)c1=S [Compound 61] | 100 µM | 170 µM | 110 µM | 
1,3-dipropyl-8-[4(dimethylamino(ethyl(amino-(sulfonyl))))fenyl]xanthine [Compound 9] | 25 µM | 40 µM | 50 µM | 
CC#Cn1c(=O)c2c(ncn2C)n(C)c1=O [Compound 1, 1-propynyl-3,7-dimethylxanthine] |  |  |  | IC50 [1, 7]: > 200 µM; IC50 (Highly purified T cells [2]; Homo sapiens, T-cell, anti-CD3 mAb+PMA pathway): 150 µM; IC50 (Highly purified T cells [3]; Homo sapiens, T-cell, anti-CD28 mAb+PMA pathway): > 200 µM
Cn1c(=O)c2[nH]c(-c3ccco3)nc2n(C)c1=O [Compound 58] | > 200 µM | 160 µM | 170 µM | 
Cn1c(=O)c2[nH]c(-c3ccc(-c4ccccc4)cc3)nc2n(C)c1=O [Compound 115] | 110 µM | > 200 µM | 160 µM | 
C=CCn1c(=O)c2c(nc(-c3ccc(-c4ccccc4)cc3)n2CC=C)n(CCC)c1=O [Compound 117, 1,7-diallyl-3-propyl-8-(p-bifenyl)xanthine] | 15 µM | 30 µM | 30 µM | 
CCCn1c(=O)c2c(nc(-c3ccc(-c4ccccc4)cc3)n2CCC)n(CCC)c1=O [Compound 116, 1,3,7-tripropyl-8-(p-bifenyl)xanthine] | 160 µM | 45 µM | 40 µM | 
COc1c(C)c2c(c(O)c1C/C=C(\C)CCC(=O)O)C(=O)OC2 [Moferil, Mycophenolic acid, reference compound] |  |  |  | IC50 [1, 7]: < 0.5 µM; IC50 (Highly purified T cells [2]; [6]): 0.05 µM; IC50 (Highly purified T cells [3]; [8]): 0.05 µM
1,3-dipropyl-2-thio-8-[4-((((N-2-aminoethyl)-amino)carbonyl)methyl)oxy)fenyl]xanthine [Compound 35] | 50 µM | 50 µM | 70 µM | 
1,7-diallyl-3-propyl-8-(4-chlorofenyl)xanthine [Compound 119] | 15 µM | 50 µM | 30 µM | 
CO[C@H]1C[C@@H]2CC[C@@H](C)[C@@](O)(O2)C(=O)C(=O)N2CCCC[C@H]2C(=O)O[C@H]([C@H](C)C[C@@H]2CC[C@@H](O)[C@H](OC)C2)CC(=O)[C@H](C)/C=C(\C)[C@@H](O)[C@@H](OC)C(=O)[C@H](C)C[C@H](C)/C=C/C=C/C=C/1C [Rapamycin, reference compound] |  |  |  | IC50 [1, 5]: 0.001 µM; IC50 (Highly purified T cells [2]; [6]): 0.001 µM; IC50 (Highly purified T cells [3]; [8]): 0.001 µM
CC(C)n1c(=O)n(C)c(=O)c2[nH]cnc21 [Compound 71] | 160 µM |  |  | 
C#CCn1c(=O)n(C)c(=O)c2c1ncn2C [Compound 67, 1,7-dimethyl-3-propynylxanthine] | > 200 µM | > 200 µM |  | 
Cn1c(=O)c2[nH]c(-c3ccco3)nc2n(C)c1=S [Compound 60] | > 200 µM |  | 190 µM | 
